{"source": "ChEMBL document CHEMBL1143414", "about": "“Association of saquinavir plasma concentrations with side effects but not with antiretroviral outcome in patients infected with protease inhibitor-susceptible human immunodeficiency virus type 1” (Antimicrob Agents Chemother, 2007)", "conditions_in_all_cases": "in vivo", "key": {"[1]": {"experiment": "Apparent elimination half life in HIV1 infected human at 1000 mg, po administered twice daily", "format": "ADME, organism-based"}, "[2]": {"tested_on": "Homo sapiens", "experiment": "Tlag in HIV1 infected human at 1000 mg, po administered twice daily", "format": "ADME, organism-based"}, "[3]": {"tested_on": "Homo sapiens", "experiment": "AUC in HIV1 infected human at 1000 mg, po administered twice daily", "format": "ADME, organism-based, Plasma"}, "[4]": {"experiment": "Cmax in HIV1 infected human at 1000 mg, po administered twice daily", "format": "ADME, organism-based", "design": "dose 1000 mg, route oral"}, "[5]": {"experiment": "Tmax in HIV1 infected human at 1000 mg, po administered twice daily", "format": "ADME, organism-based"}, "[6]": {"experiment": "Cmax in HIV1 infected human at 100 mg, po administered twice daily", "format": "ADME, organism-based", "design": "dose 100 mg, route oral"}, "[7]": {"experiment": "Tmax in HIV1 infected human at 100 mg, po administered twice daily", "format": "ADME, organism-based"}, "[8]": {"tested_on": "Homo sapiens", "experiment": "Tlag in HIV1 infected human at 100 mg, po administered twice daily", "format": "ADME, organism-based"}, "[9]": {"tested_on": "Homo sapiens", "experiment": "AUC in HIV1 infected human at 100 mg, po administered twice daily", "format": "ADME, organism-based, Plasma"}, "[10]": {"tested_on": "Homo sapiens", "experiment": "CL/F in HIV1 infected human at 100 mg, po administered twice daily", "format": "ADME, organism-based"}, "[11]": {"experiment": "Apparent elimination half life in HIV1 infected human at 100 mg, po administered twice daily", "format": "ADME, organism-based"}}, "data": [{"smiles": "CC(C)(C)NC(=O)[C@@H]1C[C@@H]2CCCC[C@@H]2CN1C[C@@H](O)[C@H](Cc1ccccc1)NC(=O)[C@H](CC(N)=O)NC(=O)c1ccc2ccccc2n1", "note": "[SAQUINAVIR]", "values": [{"measurement": "half-life", "setting": "[1]", "value": 3.7, "unit": "h"}, {"measurement": "Tlag", "setting": "[2]", "value": 0, "unit": "h"}, {"measurement": "AUC", "setting": "[3]", "value": 17546.5, "unit": "ng·h/mL"}, {"measurement": "Cmax", "setting": "[4]", "value": 2620, "unit": "ng/mL"}, {"measurement": "Tmax", "setting": "[5]", "value": 4, "unit": "h"}]}, {"smiles": "CC(C)c1nc(CN(C)C(=O)N[C@H](C(=O)N[C@@H](Cc2ccccc2)C[C@H](O)[C@H](Cc2ccccc2)NC(=O)OCc2cncs2)C(C)C)cs1", "note": "[RITONAVIR]", "values": [{"measurement": "Cmax", "setting": "[6]", "value": 880, "unit": "ng/mL"}, {"measurement": "Tmax", "setting": "[7]", "value": 4, "unit": "h"}, {"measurement": "Tlag", "setting": "[8]", "value": 0.25, "unit": "h"}, {"measurement": "AUC", "setting": "[9]", "value": 6399.9, "unit": "ng·h/mL"}, {"measurement": "CL/F", "setting": "[10]", "value": 15.6, "unit": "L/h"}, {"measurement": "half-life", "setting": "[11]", "value": 4.3, "unit": "h"}]}]}
